Test results from US7456191B2, “N-Aryl-sulfoximine-substituted pyrimidines as CDK-and/or VEGF inhibitors, their production and use as pharmaceutical agents” (Schering AG, priority 2005, dated 2008).

Experiments:
Human Carboanhydrase-2 = Human Carboanhydrase-2 (Homo sapiens, UniProt P00918); experiment: Carboanhydrase assay; assay type: biochemical; details: 4-nitrophenyl acetate hydrolysis, 400 nm; read-out: Inhibition of Human Carboanhydrase-2 IC50
Procedure: 2 μl of the test compounds, dissolved in DMSO (100× the final concentration), in a concentration range of 0.03-10 μm (final), was pipetted as 4× determinations into the holes of a 96-hole microtiter plate. Holes that contained the solvent without test compounds were used as reference values (1. Holes without carboanhydrase for correction of the non-enzymatic hydrolysis of the substrate, and 2. Holes with carboanhydrase for determining the activity of the non-inhibited enzyme).
188 μl of assay buffer (10 mmol of Tris/HCl, pH 7.4, 80 mmol of NaCl), with or without 3 units/hole on carboanhydrase I or II, was pipetted into the holes of the microtiter plate.

CDK2/CycE = molecular target: T1, CDK2/CycE (Homo sapiens, UniProt P24941); experiment: CDK2/CycE kinase assay; assay type: biochemical; details: histone IIIS substrate, 0.5 μm ATP, 33P filter assay
T1 construct: GST; purchased ProQinase GmbH, Freiburg; host or cells: baculovirus-infected insect cells (Sf9)
Procedure: Recombinant CDK2- and CycE-GST-fusion proteins, purified from baculovirus-infected insect cells (Sf9), were purchased by ProQinase GmbH, Freiburg. Histone IIIs, which was used as a kinase substrate, was purchased by the Sigma Company.
(§1) CDK2/CycE (50 ng/measuring point) was incubated for 15 minutes at 22° C. in the presence of various concentrations of test substances (0 μm, as well as within the range of 0.01-100 μm) in assay buffer [50 mmol of tris/HCl, pH 8.0, 10 mmol of MgCl2, 0.1 mmol of Na ortho-vanadate, 1.0 mmol of dithiothreitol, 0.5 μm of adenosine triphosphate (ATP), 10 μg/measuring point of histone IIIS, 0.2 μCi/measuring point of ^33P-gamma ATP, 0.05% NP40, 12.5% dimethyl sulfoxide]. The reaction was stopped by adding EDTA solution (250 mmol, pH 8.0, 14 μl/measuring point).
(§2) From each reaction batch, 10 μl was applied to P30 filter strips (Wallac Company), and non-incorporated ^33P-ATP was removed by subjecting the filter strips to three washing cycles for 10 minutes each in 0.5% phosphoric acid. After the filter strips were dried for one hour at 70° C., the filter strips were covered with scintillator strips (MeltiLex™ A, Wallac Company) and baked for one hour at 90° C. The amount of incorporated ^33P (substrate phosphorylation) was determined by scintillation measurement in a gamma-radiation measuring device (Wallac).

[1] = system: DU 145, hormone-independent human prostate cancer cells; experiment: Proliferation assay, DU145; assay type: cell-based; details: DU-145, 96 h, 4 days, crystal violet
Source text: (§3) Cultivated human tumor cells (MCF7, hormone-independent human breast cancer cells, related to ATCC HTB22; NCI-H460, human non-small-cell lung cancer cells, ATCC HTB-177; DU 145, hormone-independent human prostate cancer cells, ATCC HTB-81; MaTu-MDR, hormone-independent, multiple pharmaceutical agent-resistant human breast cancer cells, EPO-GmbH, Berlin) were flattened out at a density of about 5000 cells/measuring point, depending on the growth rate of the respective cells, in a 96-well multititer plate in 200 μl of the corresponding growth medium. After 24 hours, the cells of one plate (zero-point plate) were colored with crystal violet (see below), while the medium of the other plates was replaced by fresh culture medium (200 μl), to which the test substances were added in various concentrations (0 μm, as well as in the range of 0.01-30 μm; the final concentration of the solvent dimethyl sulfoxide was 0.5%). The cells were incubated for 4 days in the presence of test substances. The cell proliferation was determined by coloring the cells with crystal violet: the cells were fixed by adding 20 μl/measuring point of an 11% glutaric aldehyde solution for 15 minutes at room temperature. After three washing cycles of the fixed cells with water, the plates were dried at room temperature. The cells were colored by adding 100 μl/measuring point of a 0.1% crystal violet solution (the pH was set at 3 by adding acetic acid). After three washing cycles of the colored cells with water, the plates were dried at room temperature. The dye was dissolved by adding 100 μl/measuring point of a 10% acetic acid solution. The extinction was determined by photometry at a wavelength of 595 nm. The change of cell growth, in percent, was calculated by normalization of the measured values to the extinction values of the zero-point plate (=0%) and the extinction of the untreated (0 μm) cells (=100%).

[2] = system: MCF7, hormone-independent human breast cancer cells; experiment: Proliferation assay, MCF7; assay type: cell-based; details: 96 h, 4 days, crystal violet
Source text: as §3

CDK1/CycB = molecular target: T2, CDK1/CycB (Homo sapiens, UniProt P06493); experiment: CDK1/CycB kinase assay; assay type: biochemical; details: histone IIIS substrate, 0.5 μm ATP, 33P filter assay
T2 construct: GST; purchased ProQinase GmbH, Freiburg; host or cells: baculovirus-infected insect cells (Sf9)
T2 sequence (P06493 whole entry): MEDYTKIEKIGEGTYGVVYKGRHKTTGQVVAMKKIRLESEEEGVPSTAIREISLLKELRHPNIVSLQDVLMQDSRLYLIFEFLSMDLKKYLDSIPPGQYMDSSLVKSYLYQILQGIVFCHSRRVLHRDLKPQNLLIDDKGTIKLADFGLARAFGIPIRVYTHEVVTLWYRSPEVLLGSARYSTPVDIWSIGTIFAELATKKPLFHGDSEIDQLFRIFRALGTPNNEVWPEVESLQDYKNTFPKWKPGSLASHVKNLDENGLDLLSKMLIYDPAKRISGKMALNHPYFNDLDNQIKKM
T2 sequence (P14635 whole entry partner): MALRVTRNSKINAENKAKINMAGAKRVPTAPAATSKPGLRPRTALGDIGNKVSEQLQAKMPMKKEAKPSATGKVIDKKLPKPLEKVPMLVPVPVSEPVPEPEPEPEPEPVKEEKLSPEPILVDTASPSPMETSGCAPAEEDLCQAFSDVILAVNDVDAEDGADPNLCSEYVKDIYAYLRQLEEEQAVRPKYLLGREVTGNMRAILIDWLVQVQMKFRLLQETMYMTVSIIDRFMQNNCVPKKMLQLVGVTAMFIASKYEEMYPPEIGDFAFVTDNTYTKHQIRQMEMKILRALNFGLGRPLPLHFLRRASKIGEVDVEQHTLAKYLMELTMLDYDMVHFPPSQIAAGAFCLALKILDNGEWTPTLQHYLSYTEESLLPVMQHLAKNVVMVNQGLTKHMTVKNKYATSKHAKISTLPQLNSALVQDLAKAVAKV
Procedure: Recombinant CDK1- and CycB-GST-fusion proteins, purified from baculovirus-infected insect cells (Sf9), were purchased from ProQinase GmbH, Freiburg. Histone IIIS, used as a kinase substrate, is available commercially from the Sigma Company.
as §1, with “CDK1/CycB (200” for “CDK2/CycE (50”
as §2, with “33P-ATP” for “^33P-ATP”, “33P” for “^33P”

MaTu-ADR = experiment: Proliferation assay, MaTu-ADR; assay type: cell-based; details: Homo sapiens, 96 h; MaTu-ADR cells, 4 days, crystal violet
[3] = system: NCI-H460, human non-small-cell lung cancer cells; experiment: Proliferation assay, H460; assay type: cell-based; details: NCI-H460, 96 h, 4 days, crystal violet
Source text: as §3

[4] = molecular target: T3, VEGF receptor tyrosine kinase-2 (Homo sapiens, UniProt P35968); experiment: VEGF receptor-2 kinase assay; assay type: biochemical; details: poly-(Glu4Tyr) substrate, 8 μmol ATP, 33P filter assay; read-out: VEGF-R2 IC50
T3 construct: GST; made in house; host or cells: baculovirus-infected insect cells (Sf9)
T3 sequence (P35968 20-1356): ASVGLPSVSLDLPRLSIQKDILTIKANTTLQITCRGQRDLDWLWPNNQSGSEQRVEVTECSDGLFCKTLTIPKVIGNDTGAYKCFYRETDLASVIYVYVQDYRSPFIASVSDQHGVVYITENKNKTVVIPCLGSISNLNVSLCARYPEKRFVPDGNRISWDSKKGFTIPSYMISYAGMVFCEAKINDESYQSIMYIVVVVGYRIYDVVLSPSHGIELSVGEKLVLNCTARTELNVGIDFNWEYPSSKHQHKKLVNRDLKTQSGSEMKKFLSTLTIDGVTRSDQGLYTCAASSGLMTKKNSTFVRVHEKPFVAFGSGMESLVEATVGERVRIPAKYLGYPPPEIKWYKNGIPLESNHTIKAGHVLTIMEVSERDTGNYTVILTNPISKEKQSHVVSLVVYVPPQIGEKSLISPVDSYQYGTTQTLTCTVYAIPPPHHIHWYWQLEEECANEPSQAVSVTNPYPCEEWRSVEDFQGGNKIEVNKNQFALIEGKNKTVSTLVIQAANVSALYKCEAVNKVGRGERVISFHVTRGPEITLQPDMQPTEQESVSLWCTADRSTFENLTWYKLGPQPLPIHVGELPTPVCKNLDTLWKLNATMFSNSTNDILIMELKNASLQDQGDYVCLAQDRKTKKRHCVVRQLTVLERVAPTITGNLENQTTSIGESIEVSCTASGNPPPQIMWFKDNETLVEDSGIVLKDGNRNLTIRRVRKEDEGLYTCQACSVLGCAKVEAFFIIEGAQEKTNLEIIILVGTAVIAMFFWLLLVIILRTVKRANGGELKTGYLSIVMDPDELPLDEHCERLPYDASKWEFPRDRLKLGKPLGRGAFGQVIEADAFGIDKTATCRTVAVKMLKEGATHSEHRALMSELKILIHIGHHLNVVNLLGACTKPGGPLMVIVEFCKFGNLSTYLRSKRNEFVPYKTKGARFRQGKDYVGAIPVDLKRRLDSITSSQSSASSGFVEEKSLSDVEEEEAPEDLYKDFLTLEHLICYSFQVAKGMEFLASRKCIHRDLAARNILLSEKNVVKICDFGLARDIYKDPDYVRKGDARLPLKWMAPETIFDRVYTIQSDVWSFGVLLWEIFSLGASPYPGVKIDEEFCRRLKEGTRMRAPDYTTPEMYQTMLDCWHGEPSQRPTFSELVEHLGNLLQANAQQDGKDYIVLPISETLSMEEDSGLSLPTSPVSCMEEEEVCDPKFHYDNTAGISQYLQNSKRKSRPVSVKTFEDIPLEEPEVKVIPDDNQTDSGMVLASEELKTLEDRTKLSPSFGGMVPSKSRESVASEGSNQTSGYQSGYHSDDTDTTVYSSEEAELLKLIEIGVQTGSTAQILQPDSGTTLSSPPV
Procedure: VEGF Receptor-2 Kinase Assay
Recombinant VEGF receptor tyrosine kinase-2 was purified as a GST fusion protein from baculovirus-infected insect cells (Sf9). Poly-(Glu4Tyr), which was used as a kinase substrate, was purchased by the Sigma Company. VEGF receptor tyrosine kinase (90 ng/measuring point) was incubated for 10 minutes at 22° C. in the presence of various concentrations of test substances (0 μm, as well as within the range of 0.001-30 μm) in 30 μl of assay buffer [40 mmol of Tris/HCl, […], 10 mmol of MgCl2, 1 mmol of MnCl2, 3 μmol of Na ortho-vanadate, 1.0 mmol of dithiothreitol, 8 μmol of adenosine trisphosphate (ATP), 27 μg/measuring point of poly-(Glu4Tyr), 0.2 μCi/measuring point of 33P-gamma ATP, 1% dimethyl sulfoxide]. The reaction was stopped by adding EDTA solution (250 mmol, pH 7.0, 10 μl/measuring point).
as §2, with “33P-ATP” for “^33P-ATP”, “33P” for “^33P”

SMILES	IC50 (Human Carboanhydrase-2) [µM]	IC50 (CDK2/CycE) [µM]	IC50 [1] [µM]	IC50 [2] [µM]	IC50 (CDK1/CycB) [µM]	IC50 [3] [µM]	IC50 [4] [µM]	IC50 (MaTu-ADR) [µM]
C#CCOc1nc(Nc2ccc(N=S(C)(C)=O)cc2)ncc1C(F)(F)F [Example 9, S,S-Dimethyl-N-(4-{[4-(prop-2-yn-1-yloxy)-5-(trifluoromethyl)pyrimidin-2-yl]amino}phenyl)sulfoximide]	–	0.26	–	–	0.67	–	0.14	–
CS(C)(=O)=Nc1ccc(Nc2ncc(Br)c(NC3(CO)CCCC3)n2)cc1 [Example 11, N-{4-[(5-Bromo-4-{[1-(hydroxymethyl)cyclopentyl]amino}pyrimidin-2-yl)amino]phenyl}-S,S-dimethylsulfoximide]	–	0.68	–	–	–	–	0.054	–
CS(C)(=O)=Nc1ccc(Nc2ncc(Br)c(N[C@@H]3CCOC3)n2)cc1 [Example 13, N-[4-({5-Bromo-4-[(R)-(2,3,4,5-tetrahydrofuran-3-yl)amino]pyrimidin-2-yl}amino)phenyl]-S,S-dimethylsulfoximide]	–	–	–	–	–	–	0.042	–
C[C@H](CO)Nc1nc(Nc2ccc(N=S(C)(C)=O)cc2)ncc1[N+](=O)[O-] [Example 7, N-{4-[(4-{[(R)-2-Hydroxy-1-methylethyl]amino}-5-nitropyrimidin-2-yl)amino]phenyl}-S,S-dimethylsulfoximide]	–	–	–	–	–	–	0.2	–
Cc1cccc(Nc2nc(Nc3ccc(N=S(C)(C)=O)cc3)ncc2Br)n1 [Example 5, N-[4-({5-Bromo-4-[(6-methyl-2-pyridyl)amino]pyrimidin-2-yl}amino)phenyl]-S,S-dimethylsulfoximide]	–	0.34	–	0.7	0.49	–	0.18	–
CS(C)(=O)=Nc1ccc(Nc2ncc(Br)c(Nc3ccccc3)n2)cc1 [Example 6, N-{4-[(4-Anilino-5-bromopyrimidin-2-yl)amino]phenyl}-S,S-dimethylsulfoximide]	–	–	0.3	0.5	–	0.4	0.073	0.3
C#CCNc1nc(Nc2ccc(N=S(C)(C)=O)cc2)ncc1C(F)(F)F [Example 10, S,S-Dimethyl-N-(4-{[4-(prop-2-yn-1-ylamino)-5-(trifluoromethyl)pyrimidin-2-yl]amino}phenyl)sulfoximide]	–	0.22	–	–	0.4	–	0.16	–
CS(C)(=O)=Nc1ccc(Nc2ncc(Br)c(N[C@H]3CCCC[C@@H]3O)n2)cc1 [Example 12, N-{4-[(5-Bromo-4-{[(1S,2S)-2-hydroxycyclohexyl]amino}pyrimidin-2-yl)amino]phenyl}S,S-dimethylsulfoximide]	–	0.46	–	–	–	–	0.28	–

Now from value to molecule, other results behind:

IC50 (Human Carboanhydrase-2) [µM]	IC50 (CDK2/CycE) [µM]	IC50 [1] [µM]	IC50 [2] [µM]	IC50 (CDK1/CycB) [µM]	IC50 [3] [µM]	IC50 [4] [µM]	SMILES	IC50 (MaTu-ADR) [µM]
> 10	0.027	0.6	0.4	0.13	0.5	0.074	C[C@@H](Nc1nc(Nc2ccc(N=S(C)(C)=O)cc2)ncc1Br)C(C)(C)O [Example 1, N-{4-[(5-Bromo-4-{[(R)-2-hydroxy-1,2-dimethylpropyl]amino}-pyrimidin-2-yl)amino]phenyl}-S,S-dimethylsulfoximide]	0.8
> 10	0.012	1	0.3	0.028	0.7	0.044	C[C@@H](O)[C@@H](C)Oc1nc(Nc2ccc(N=S(C)(C)=O)cc2)ncc1Br [Example 3, N-{4-[(5-Bromo-4-{[(1R,2R)-2-hydroxy-1-methylpropyl]oxy}-pyrimidin-2-yl)amino]phenyl}S,S-dimethylsulfoximide]	0.5
> 10	0.011	1	0.6	0.032	0.8	0.027	C[C@@H](O)[C@@H](C)Nc1nc(Nc2ccc(N=S(C)(C)=O)cc2)ncc1Br [Example 2, N-{4-[(5-Bromo-4-{[(1R,2R)-2-hydroxy-1-methylpropyl]amino}-pyrimidin-2-yl)amino]phenyl}-S,S-dimethylsulfoximide]	0.9
–	0.2	–	2.2	–	–	0.088	CC(C)[C@H](CO)Nc1nc(Nc2ccc(N=S(C)(C)=O)cc2)ncc1I [Example 4, N-{4-[(4-{[(R)-1-(Hydroxymethyl)-2-methylpropyl]amino}-5-iodopyrimidin-2-yl)amino]phenyl}-S,S-dimethylsulfoximide]	–
